Measured values from US9833431B2, “Pharmaceutical combinations for the treatment of cancer” (Pitney Pharmaceuticals Pty Limited, priority 2013, dated 2017).
Several values for one entry are separate records, joined by “and”; a condition that tells them apart may be missing. Equal values may be shown once. Entries after “also recorded” stand apart in the source; their conditions may differ.

Assays:
[1] = tested on: MCF-7; test: SRB cytotoxicity assay, MCF-7 cells; format: cell-based; settings: Homo sapiens, MCF7, 72 h, MCF-7, malignant, breast
Experimental: (§1) All cell lines described herein were purchased from ATCC. […] Control cultures were treated with ethanol alone.

[2] = tested on: MDA-MB-231; test: SRB cytotoxicity assay, MDA-MB-231 cells; format: cell-based; settings: MDA-MB-231, malignant, breast
Experimental: as §1

[3] = tested on: T47-D; test: SRB cytotoxicity assay, T47-D cells; format: cell-based; settings: Homo sapiens, T47D, malignant, breast, 72 h
Experimental: as §1

[4] = tested on: C170; test: SRB cytotoxicity assay, C170 cells; format: cell-based
Experimental: as §1

[5] = tested on: HT-29; test: cells; format: cell-based
Experimental: as §1

[6] = tested on: HT-29 5m11; test: SRB cytotoxicity assay, HT-29 5m11 cells; format: cell-based; settings: Homo sapiens, read-out: LC50 (the source's name)
Experimental: as §1

[7] = tested on: LN-18; test: SRB cytotoxicity assay, LN-18 cells; format: cell-based, human; settings: 72 h
Experimental: as §1

[8] = tested on: U87; test: SRB cytotoxicity assay, U87 cells; format: cell-based, human; settings: 72 h
Experimental: as §1

[9] = tested on: U251; test: SRB cytotoxicity assay, U251 cells; format: cell-based; settings: Homo sapiens, U-251, U251, malignant, glial, 72 h
Experimental: as §1

[10] = tested on: Hep3B; test: SRB cytotoxicity assay, Hep3B cells; format: cell-based, human; settings: for cytotoxic effect of MPL alone: Hep3B cells
Experimental: as §1

[11] = tested on: HT-1080 (Fibrosarcoma); test: SRB cytotoxicity assay, HT-1080 cells; format: cell-based
Experimental: as §1

[12] = tested on: SW-872 (Liposarcoma); test: SRB cytotoxicity assay, SW-872 cells; format: cell-based; settings: Homo sapiens, SW872
Experimental: as §1

[13] = tested on: PET; test: SRB cytotoxicity assay, PET cells; format: cell-based, human; settings: 72 h
Experimental: as §1

[14] = tested on: REN; test: SRB cytotoxicity assay, REN cells; format: cell-based, human; settings: 72 h
Experimental: as §1

[15] = tested on: YOU; test: SRB cytotoxicity assay, YOU cells; format: cell-based, human; settings: 72 h
Experimental: as §1

[16] = tested on: 1A9; test: SRB cytotoxicity assay, 1A9 cells; format: cell-based; settings: Homo sapiens, 1A9, malignant, ovarian, 72 h
Experimental: as §1

[17] = tested on: AsPC1; test: SRB cytotoxicity assay, AsPC1 cells; format: cell-based, human; settings: 72 h
Experimental: as §1

[18] = tested on: DU-145; test: SRB cytotoxicity assay, DU-145 cells; format: cell-based; settings: Homo sapiens, DU-145, malignant, prostatic, 72 h
Experimental: as §1

[19] = tested on: PC-3; test: SRB cytotoxicity assay, PC-3 cells; format: cell-based; settings: Homo sapiens, PC-3, malignant, prostatic, 72 h
Experimental: as §1

[20] = tested on: 3T3 (fibroblast); test: SRB cytotoxicity assay, 3T3 cells; format: cell-based; settings: immortalised, mesenchymal, 72 h
Experimental: as §1

[21] = tested on: HEK; test: SRB cytotoxicity assay, HEK cells; format: cell-based; settings: Homo sapiens, HEK293, immortalised, nephritic, 72 h
Experimental: as §1

[22] = tested on: CHO; test: SRB cytotoxicity assay, CHO cells; format: cell-based; settings: Cricetulus griseus, immortalised, ovarian, 72 h
Experimental: as §1

[23] = tested on: HUVEC; test: SRB cytotoxicity assay, HUVEC; format: cell-based; settings: Homo sapiens, non-malignant, endothelial, 72 h
Experimental: as §1

[24] = tested on: Human Fetal Astrocytes; test: SRB cytotoxicity assay, human fetal astrocytes; format: cell-based; settings: Astrocyte, non-malignant, glial, 72 h
Experimental: as §1

[25] = tested on: 28 malignant cell lines; test: SRB cytotoxicity assay, summary over malignant cell lines; format: cell-based; settings: all 28 malignant cell lines tested, with the exception of CFPAC-1 and SKOV-3; summary of Table 3; read-out: IC50 proliferation
Experimental: as §1

[26] = in vivo; cited from earlier work
[27] = dosage of 1000 mg of MPL per kg of body weight per 24 hours; mammals; cited from earlier work
[28] = tested on: SKOV-1; test: SRB cytotoxicity assay, SKOV-1 cells
Experimental: (§2) Cells were seeded in 96-well plates (2,000-3,000 cells/well), treated with the indicated compound(s) for 72 h, fixed, washed and stained with 100 μl of 0.4% (w/v) SRB dissolved in 1% acetic acid. Unbound dye was removed by five washes with 1% acetic acid before air-drying.
(§3) MPL (5 μM) and combination drugs were applied for 72 h unless indicated.

[29] = tested on: CFPAC-1; test: SRB cytotoxicity assay, CFPAC-1 cells
Experimental: (§4) Cells were seeded in 96-well plates (2,000-3,000 cells/well) and culture overnight prior to treatment with MPL. Control cultures were treated with ethanol alone.
Cytotoxicity was assessed using the sulforhodamine B (SRB) assay and reported as half maximal inhibitory concentration (IC50; Table 3). Cells were seeded in 96-well plates (2,000-3,000 cells/well), treated with the indicated compound(s) for 72 h, fixed, washed and stained with 100 μl of 0.4% (w/v) SRB dissolved in 1% acetic acid. Unbound dye was removed by five washes with 1% acetic acid before air-drying.
as §3

[30] = tested on: A2780; test: SRB cytotoxicity / proliferation assay, A2780 cells; settings: for Mpl Alone, Mpl (x/X) Inhibition: A2780 Ovarian, 72 h, x=events, X=experiments
Experimental: as §4, §2
Cell viability was conducted according to standard Trypan Blue method. Cell proliferation was assessed using the sulforhodamine B (SRB) assay. For viability experiments, cells were seeded in 6 well plates, whereas for proliferation assays cells were grown in 96 well plates. Following over-night attachment, cells were treated with the intended drug at various concentrations either alone or in combination with monepantel (MPL) for 72 h. Parallel to this, cells treated with MPL alone were also deployed for comparative purposes. Following incubation for 72 h in a standard cell culture incubator, effect of mono and combined drug treatments on cell viability and/or cell proliferation was assessed through using Trypan Blue or SRB assays respectively.
For viability assay, at the end of treatment period, cells were washed with PBS, trypsinized and counted using Trypan blue and hemocytometer. For the SRB assay cells were fixed, washed and stained with 100 μl of 0.4% (w/v) SRB dissolved in 1% acetic acid. Unbound dye was removed by five washes with 1% acetic acid before air drying. […] Monepantel (gift by Novartis, Basel, Switzerland) was dissolved in 100% ethanol and then diluted with the cell culture media.

[31] = tested on: HOSE; test: SRB cytotoxicity assay, HOSE non-malignant control cells; settings: for Mpl Alone, Mpl (x/X) Inhibition: 5 μM MPL, x=events, X=experiments; for cytotoxicity of MPL alone: HOSE control cells, Table 6 footnote 3
Experimental: All cell lines described herein were purchased from ATCC. Cells were seeded in 96-well plates (2,000-3,000 cells/well) and culture overnight prior to treatment with MPL. Control cultures were treated with ethanol alone.
as §2
Corresponding cytotoxicity of the major metabolite MPL-SO2 has also been tested where indicated. […] HUVEC, human fetal astrocytes and HOSE cells are non-transformed, non-immortalized and non-malignant, freshly isolated/low passage number cell populations, from apparently healthy non-diseased tissue. These healthy cell populations were included in the experimental series as controls for non-specific toxicity. Both MPL and MPL-SO2 were suspended in ethanol and applied in final concentrations of 0.5 to 1% ethanol in the respective culture media.
In order to evaluate the effect of MPL on the in vitro efficacy of an established drug was evaluated using cell viability and cell proliferation assays. Cell viability was conducted according to standard Trypan Blue method. Cell proliferation was assessed using the sulforhodamine B (SRB) assay. For viability experiments, cells were seeded in 6 well plates, whereas for proliferation assays cells were grown in 96 well plates. Following over-night attachment, cells were treated with the intended drug at various concentrations either alone or in combination with monepantel (MPL) for 72 h. Parallel to this, cells treated with MPL alone were also deployed for comparative purposes. Following incubation for 72 h in a standard cell culture incubator, effect of mono and combined drug treatments on cell viability and/or cell proliferation was assessed through using Trypan Blue or SRB assays respectively.
For viability assay, at the end of treatment period, cells were washed with PBS, trypsinized and counted using Trypan blue and hemocytometer. For the SRB assay cells were fixed, washed and stained with 100 μl of 0.4% (w/v) SRB dissolved in 1% acetic acid. Unbound dye was removed by five washes with 1% acetic acid before air drying. […] Monepantel (gift by Novartis, Basel, Switzerland) was dissolved in 100% ethanol and then diluted with the cell culture media. Other agents employed in the study were purchased either from Sigma Australia or Sapphire Australia, prepared and preserved for cell culture use according to supplier instructions.
as §3

C[C@](C#N)(COc1cc(C#N)ccc1C(F)(F)F)NC(=O)c1ccc(SC(F)(F)F)cc1 [MPL, N-[(1S)-1-cyano-2-(5-cyano-2-trifluoromethyl-phenoxy)-1-methyl-ethyl]-4-trifluoromethylsulfanyl-benzamide]
IC50 [1]: 15.5 µM | IC50 ([2]; Homo sapiens, MDA-MB-231, 72 h): 23.8 µM | IC50 ([2]; 72 h): 25.8 ± 0.2 µM | IC50 [3]: 5.3 µM | significant cytotoxic effect of MPL alone ([4]; C170 cells, MPL (5 μM)): one of two experiments | IC50 ([4]; Homo sapiens, C170, malignant, colorectal, SRB, 72 h): ~20 µM | significant cytotoxic effect of MPL alone ([5]; HT29 cells, MPL (5 μM), two experiments): no significant cytotoxic effect | CC50 ([5]; Homo sapiens, HT-29, HT29 cells, read-out: LC50 (the source's name)): 5.9 µM | IC50 ([5]; Homo sapiens, HT-29, malignant, colorectal, SRB, 72 h): 5.9 ± 0.2 µM | CC50 [6]: 10.4 µM | IC50 ([7]; Homo sapiens, LN-18, malignant, glial, SRB): 9.4 ± 0.8 µM | Mpl Alone, Mpl (x/X) Inhibition ([7]; LN18 Glioblastoma, 5 μM MPL, x=number of events, X=number of experiments): 2/2 | IC50 ([8]; Homo sapiens, U-87 MG, U87, malignant, glial, SRB): 18 ± 7.1 µM | Mpl Alone, Mpl (x/X) Inhibition ([8]; U87 Glioblastoma, 5 μM MPL, x=events, X=experiments): 1/1 | IC50 [9]: 17 ± 1.2 µM | Mpl Alone, Mpl (x/X) Inhibition ([10]; Hep3B Hepatoma, 5 μM MPL, 48 h, x=events, X=experiments): 12/12 | cytotoxic effect of MPL alone ([10]; MPL 2.5 μM, 48 h): does not display a cytotoxic effect; also recorded: does not exert a cytotoxic effect | cytotoxic effect of MPL alone ([10]; MPL 5 μM, 48 h): significant cytotoxic effect and potent effect and 12 of 12 | IC50 ([10]; Homo sapiens, Hep3B, malignant, hepatic, SRB, 72 h): 15.8 µM | Mpl Alone, Mpl (x/X) Inhibition ([11]; HT180 Fibrosarcoma, 5 or 10 μM MPL, 72 h, x=events, X=experiments): (1/1) | IC50 ([11]; Homo sapiens, HT-1080 (Fibrosarcoma), malignant, mesenchymal, SRB, 72 h): 17.2 µM | EC50 ([11]; Homo sapiens, HT-1080 cells): 17.2 µM | IC50 ([12]; SW-872 (Liposarcoma), malignant, mesenchymal, SRB, 72 h): 14.7 µM | EC50 ([12]; SW-872 cells): 14.7 µM | IC50 ([13]; Homo sapiens, PET, malignant, mesothelial, SRB): 26 µM | Mpl Alone, Mpl (x/X) Inhibition ([13]; PET Mesothelioma, 5 μM MPL, x=events, X=experiments): 2/2 | IC50 ([14]; Homo sapiens, REN, malignant, mesothelial, SRB): 2.5 ± 0.2 µM | Mpl Alone, Mpl (x/X) Inhibition ([14]; REN Mesothelioma, 5 μM MPL, x=events, X=experiments): 2/2 | IC50 ([15]; Homo sapiens, YOU, malignant, mesothelial, SRB): 23 µM | Mpl Alone, Mpl (x/X) Inhibition ([15]; YOU Mesothelioma, 5 μM MPL, x=events, X=experiments): 2/2 | IC50 [16]: 2.5 ± 0.5 µM | Mpl Alone, Mpl (x/X) Inhibition ([17]; AsPC-1 Pancreatoma, 5 μM MPL, x=events, X=experiments): 1/2 | IC50 ([17]; Homo sapiens, AsPC1, malignant, pancreatic, SRB): 7.2 ± 0.3 µM | IC50 [18]: 23 µM | IC50 [19]: 21 µM | IC50 [20]: 12.4 ± 0.4 µM | IC50 [21]: 34.6 ± 0.9 µM | IC50 [22]: 34.6 ± 0.8 µM | IC50 [23]: 87 µM | IC50 [24]: 85.6 ± 2.7 µM | IC50 [25]: 2 to 25 µM | single-dose toxicity [26]: > 2000 mg per kg of body weight | clinical tolerance [27]: well tolerated | A) Single treatment, one symbol per experiment ([28]; SKOV-1, MPL (5 μM), 72 h): ✓✓✓ | significant cytotoxic effect of MPL alone ([28]; SKOV-1 cells, MPL 5 μM, 3/3 experiments): significant cytotoxic effect | Mpl Alone, Mpl (x/X) Inhibition ([29]; CFPAC-1 Pancreatoma, 5 μM MPL, 72 h, x=events, X=experiments): 1/10 | experiments with significant cytotoxic effect of MPL alone ([29]; CFPAC-1 cells, MPL (5 μM)): 1 of 10 | experiments with cytotoxic effect of MPL alone ([29]; CFPAC-1 cells, MPL (10 μM), 72 h, data not shown): 4 of 9 | IC50 ([29]; Homo sapiens, CFPAC-1, 72 h): 30.1 ± 5.5 µM | Mpl Alone, Mpl (x/X) Inhibition ([30]; 5 μM MPL, Table 6): 6/6^2 | Mpl Alone, Mpl (x/X) Inhibition ([30]; 5 μM MPL, Table 7): (4/4) | Mpl Alone, Mpl (x/X) Inhibition ([30]; 5 or 10 μM MPL, Table 8 lower panel): (5/5)^ | Mpl Alone, Mpl (x/X) Inhibition ([30]; 5 or 10 μM MPL, Table 8 upper panel): (3/3) | IC50 ([30]; Homo sapiens, A2780, 72 h): 10 ± 3.8 µM | Mpl Alone, Mpl (x/X) Inhibition ([31]; HOSE (Ovarian) control, Table 6): 2/9^3 | Mpl Alone, Mpl (x/X) Inhibition ([31]; HOSE (Ovarian), 72 h, Table 7): (0/4) | cytotoxic effect of MPL alone ([31]; HOSE cells, FIG. 22 Rows 2 (fluorouracil) and 5 (paclitaxel)): small but significant cytotoxic effect | significant cytotoxic effect of MPL alone ([31]; HOSE cells, MPL 2.5 μM, 1/1 experiments): did not induce a significant cytotoxic effect | significant cytotoxic effect of MPL alone ([31]; HOSE cells, MPL 5 μM, 3/3 experiments): did not induce a significant cytotoxic effect | cytotoxicity of MPL alone ([31]; flutamide experiment): 3% | cytotoxicity of MPL alone ([31]; oxaliplatin experiment): 5% | IC50 ([31]; Homo sapiens, 72 h): > 100 µM
